From patent US12692254B2, “Benzimidazole inhibitors of PAD enzymes” (BRISTOL-MYERS SQUIBB COMPANY, priority 2018, dated 2026)

What follows are compounds tested against human PAD4 (hPAD4) (Homo sapiens, UniProt Q9UM07) (assay: RFMS human PAD4 functional assay (rapid-fire mass spectrum)). Details: 5 nM hPAD4 enzyme, 250 μM BAEE, 50 μM Calcium; 30 min preincubation, 90 min reaction at 37° C.
Assay type: biochemical
Summary of the method: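 PAD4 (10 nM) preincubated 30 min with compound (top final 50 μM), then BAEE substrate added in pH 7.5 HEPES buffer with DTT, 50 μM calcium, TPEN; 90 min at 37° C. After TCA quench, citrulline derivatized with phenyl glyoxal (4 mM final, 30 min, 37° C) and quantified by RapidFire MS against internal standard.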

Sequence of human PAD4 (hPAD4) (Q9UM07 whole entry): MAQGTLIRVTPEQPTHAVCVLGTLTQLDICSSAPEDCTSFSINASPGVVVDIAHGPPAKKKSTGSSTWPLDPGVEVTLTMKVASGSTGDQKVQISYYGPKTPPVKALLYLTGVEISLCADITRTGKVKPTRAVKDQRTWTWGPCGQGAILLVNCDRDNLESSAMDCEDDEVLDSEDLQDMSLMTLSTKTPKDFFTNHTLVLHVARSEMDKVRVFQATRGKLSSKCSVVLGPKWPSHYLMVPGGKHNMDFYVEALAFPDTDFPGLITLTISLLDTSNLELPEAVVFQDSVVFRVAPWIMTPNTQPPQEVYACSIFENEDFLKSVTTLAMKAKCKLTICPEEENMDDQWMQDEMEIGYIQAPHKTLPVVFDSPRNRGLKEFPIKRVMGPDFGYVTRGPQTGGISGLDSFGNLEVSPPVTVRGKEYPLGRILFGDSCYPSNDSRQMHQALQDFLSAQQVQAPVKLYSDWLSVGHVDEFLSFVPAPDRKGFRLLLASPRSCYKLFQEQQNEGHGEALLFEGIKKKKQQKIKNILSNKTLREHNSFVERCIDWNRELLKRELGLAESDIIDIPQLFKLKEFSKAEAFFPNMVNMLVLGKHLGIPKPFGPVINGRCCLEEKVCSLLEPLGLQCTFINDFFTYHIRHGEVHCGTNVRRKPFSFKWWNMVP

IC50 [nM] | Compound
190 | COc1cc(C(=O)N2C[C@H]3CC[C@@H]2[C@@H]3N)cc2nc(-c3cc4cccnc4n3CC3CC3)n(C3CN(S(=O)(=O)CC4CC4)C3)c12 [Example 331, (1R,4R,7R)-2-[1-(1-cyclopropylmethanesulfonylazetidin-3-yl)-2-[1-(cyclopropylmethyl)-1H-pyrrolo[2,3-b]pyridin-2-yl]-7-methoxy-1H-1,3-benzodiazole-5-carbonyl]-2-azabicyclo[2.2.1]heptan-7-amine]
424 | COc1cc(C(=O)N2C[C@H]3CC[C@@H]2[C@@H]3N)cc2nc(-c3cc4cccnc4n3CC3CC3)n(C3CN(c4cnc(C#N)nc4)C3)c12 [Example 82, 5-(3-{5-[(1R,4R,7R)-7-amino-2-azabicyclo[2.2.1]heptane-2-carbonyl]-2-[1-(cyclopropylmethyl)-1H-pyrrolo[2,3-b]pyridin-2-yl]-7-methoxy-1H-1,3-benzodiazol-1-yl}azetidin-1-yl)pyrimidine-2-carbonitrile]
237 | COc1cc(C(=O)N2C[C@H]3CC[C@@H]2[C@@H]3N)cc2nc(-c3cc4cccnc4n3CC3CC3)n(CC3CCN(C(=O)c4ccnc(Cl)n4)CC3)c12 [Example 230, (1R,4R,7R)-2-(1-{[1-(2-chloropyrimidine-4-carbonyl)piperidin-4-yl]methyl}-2-[1-(cyclopropylmethyl)-1H-pyrrolo[2,3-b]pyridin-2-yl]-7-methoxy-1H-1,3-benzodiazole-5-carbonyl)-2-azabicyclo[2.2.1]heptan-7-amine]
28 | COc1cc(C(=O)N2C[C@H](N)C[C@@H](F)C2)cc2nc(-c3cc4ccccc4n3CC3CC3)n(CC3CN(C(=O)c4ccc(C#N)cc4)C3)c12 [Example 90, 4-[3-({5-[(3R,5R)-3-amino-5-fluoropiperidine-1-carbonyl]-2-[1-(cyclopropylmethyl)-1H-indol-2-yl]-7-methoxy-1H-1,3-benzodiazol-1-yl}methyl)azetidine-1-carbonyl]benzonitrile]
25 | COc1cc(C(=O)N2CC3CCC2[C@@H]3N)cc2nc(-c3cc4ccccc4n3CC3CC3)n(CC3CN(C(=O)[C@@H]4C[C@H]4c4ccccc4)C3)c12 (stereo partly drawn) [Example 162, (1R,4R,7R)-2-{2-[1-(cyclopropylmethyl)-1H-indol-2-yl]-7-methoxy-1-({1-[(1R,2R)-2-phenylcyclopropanecarbonyl]aze-tidin-3-yl}methyl)-1H-1,3-benzodiazole-5-carbonyl}-2-azabicyclo[2.2.1]heptan-7-amine]
23 | N[C@@H]1C2CCC1N(C(=O)c1cc(Cl)c3c(c1)nc(-c1cc4ccccc4n1CC1CC1)n3CC1CN(C(=O)c3ccccc3)C1)C2 (stereo partly drawn) [Example 143, (1R,4R,7R)-2-{1-[(1-benozylazetidin-3-yl)methyl]-7-chloro-2-[1-(cyclopropylmethyl)-1H-indol-2-yl]-1H-1,3-benzodiazole-5-carbonyl}-2-azabicyclo[2.2.1]heptan-7-amine]
145 | COc1cc(C(=O)N2C[C@H](N)C[C@@H](F)C2)cc2nc(-c3cc4ccccc4n3CC3CC3)n(CCCOc3ccc(C#N)cc3)c12 [Example 271, 4-(3-{5-[(3R,5R)-3-amino-5-fluoropiperidine-1-carbonyl]-2-[1-(cyclopropylmethyl)-1H-indol-2-yl]-7-methoxy-1H-1,3-benzodiazol-1-yl}propoxy)benzonitrile]
582 | COC(=O)N[C@H]1C[C@H](n2c(-c3cc4cccnc4n3CC3CC3)nc3cc(C(=O)N4CC5CCC4[C@@H]5N)cc(OC)c32)C1 (stereo partly drawn) [Example 296, methyl N-[(1r,3r)-3-{5-[(1R,4R,7R)-7-amino-2-azabicyclo[2.2.1]heptane-2-carbonyl]-2-[1-(cyclopropylmethyl)-1H-pyrrolo[2,3-b]pyridin-2-yl]-7-methoxy-1H-1,3-benzodiazol-1-yl}cyclobutyl]carbamate]
16 | COc1cc(C(=O)N2C[C@H]3CC[C@@H]2[C@@H]3N)cc2nc(-c3cc4ccccc4n3CC3CC3)n(C[C@H]3CCN(c4cncc(C#N)n4)C3)c12 [Example 196, 6-[(3S)-3-({5-[(1R,4R,7R)-7-amino-2-azabicyclo[2.2.1]heptane-2-carbonyl]-2-[1-(cyclopropylmethyl)-1H-indol-2-yl]-7-methoxy-1H-1,3-benzodiazol-1-yl}methyl)pyrrolidin-1-yl]pyrazine-2-carbonitrile]
402 | COc1cc(C(=O)N2CC3CCC2[C@@H]3N)cc2nc(-c3cc4cccnc4n3CC3CC3)n(CC3CCN(C(=O)c4ncccn4)CC3)c12 (stereo partly drawn) [Example 236, (1R,4R.,7R)-2-{2-[1-(cyclopropylmethyl)-1H-pyrrolo[2,3-b]pyridin-2-yl]-7-methoxy-1-{[1-(pyrimidine-2-carbonyl)piperidin-4-yl]methyl}-1H-1,3-benzodiazole-5-carbonyl}-2-azabicyclo[2.2.1]heptan-7-amine]
59 | COc1cc(C(=O)N2CC3CCC2[C@@H]3N)cc2nc(-c3cc4cccnc4n3CC3CC3)n(CC3CN(C(=O)c4cccc(Cl)c4)C3)c12 (stereo partly drawn) [Example 456, (7R)-2-(1-{[1-(3-chlorobenzoyl)azetidin-3-yl]methyl}-2-[1-(cyclopropylmethyl)-1H-pyrrolo[2,3-b]pyridin-2-yl]-7-methoxy-1H-1,3-benzodiazole-5-carbonyl)-2-azabicyclo[2.2.1]heptan-7-amine]
93 | COc1cc(C(=O)N2CC3CCC2[C@@H]3N)cc2nc(-c3cc4ccccc4n3CC3CC3)n(CC3CN(C(=O)c4ccccc4C(=O)O)C3)c12 (stereo partly drawn) [Example 179, 2-[3-({5-[(1R,4R,7R)-7-amino-2-azabicyclo[2.2.1]heptane-2-carobnyl]-2-[1-(cyclopropylmethyl)-1H-indol-2-yl]-7-methoxy-1H-1,3-benzodiazol-1-yl}methyl)azetidine-1-carbonyl]benzoic acid]
31 | COc1cc(C(=O)N2C[C@H]3CC[C@@H]2[C@@H]3N)cc2nc(-c3cc4ccccc4n3CC3CC3)n(CCCN3CCCC3=O)c12 [Example 254, 1-(3-{5-[(1R,4R,7R)-7-amino-2-azabicyclo[2.2.1]heptane-2-carbonyl]-2-[1-(cyclopropylmethyl)-1H-indol-2-yl]-7-methoxy-1H-1,3-benzodiazol-1-yl}propyl)pyrrolidin-2-one]
27 | COc1cc(C(=O)N2C[C@H]3CC[C@@H]2[C@@H]3N)cc2nc(-c3cc4ccccc4n3CC3CC3)n(Cc3cn[nH]c3)c12 [Example 247, (1-((1H-pyrazol-4-yl)methyl)-2-(1-(cyclopropylmethyl)-1H-indol-2-yl)-7-methoxy-1H-benzo[d]imidazol-5-yl)((1R,4R,7R)-7-amino-2-azabicyclo[2.2.1]heptan-2-yl)methanone]
72 | COc1cc(C(=O)N2C[C@H]3CC[C@@H]2[C@@H]3N)cc2nc(-c3cc4cccnc4n3CC3CC3)n(CC3CN(c4ccc(C#N)cc4)C3)c12 [Example 25, 4-[3-({5-[(1R,4R,7R)-7-amino-2-azabicyclo[2.2.1]heptane-2-carbonyl]-2-[1-(cyclopropylmethyl)-1H-pyrrolo[2,3-b]pyridin-2-yl]-7-methoxy-1H-1,3-benzodiazol-1-yl}methyl)azetidin-1-yl]benzonitrile]
37 | COc1cc(C(=O)N2CC3CCC2[C@@H]3N)cc2nc(-c3cc4cccnc4n3CC3CC3)n(Cc3cnn(-c4cc(F)cnc4O)c3)c12 (stereo partly drawn) [Example 380, 3-[4-({5-[(7R)-7-amino-2-azabicyclo[2.2.1]heptane-2-carbonyl]-2-[1-(cyclopropylmethyl)-1H-pyrrolo[2,3-b]pyridin-2-yl]-7-methoxy-1H-1,3-benzodiazol-1-yl)methyl}-1H-pyrazol-1-yl]-5-fluoropyridin-2-ol]
56 | COc1cc(C(=O)N2C[C@H]3CC[C@@H]2[C@@H]3N)cc2nc(-c3cc4cccnc4n3CC3CC3)n(CC3CCN(c4ccncn4)CC3)c12 [Example 217, (1R,4R,7R)-2-{2-[1-(cyclopropylmethyl)-1H-pyrrolo[2,3-b]pyridin-2-yl]-7-methoxy-1-{[1-(pyrimidin-4-yl)piperidin-4-yl]methyl}-1H-1,3-benzodiazole-5-carbonyl}-2-azabicyclo[2.2.1]heptan-7-amine]
180 | COc1cc(C(=O)N2CC3CCC2[C@@H]3N)cc2nc(-c3cc4cccnc4n3CC3CC3)n(CC3CC(C(N)=O)C3)c12 (stereo partly drawn) [Example 475, 3-({5-[(7R)-7-amino-2-azabicyclo[2.2.1]heptane-2-carbonyl]-2-[1-(cyclopropylmethyl)-1H-pyrrolo[2,3-b]pyridin-2-yl]-7-methoxy-1H-1,3-benzodiazol-1-yl}methyl)cyclobutane-1-carboxamide]
20 | COc1cc(C(=O)N2C[C@H]3CC[C@@H]2[C@@H]3N)cc2nc(-c3cc4ccccc4n3CC3CC3)n(CCC3CCS(=O)(=O)CC3)c12 [Example 245, ((1R,4R,7R)-7-amino-2-azabicyclo[2.2.1]heptan-2-yl)(2-(1-(cyclopropylmethyl)-1H-indol-2-yl)-1-(2-(1,1-dioxidotetrahydro-2H-thiopyran-4-yl)ethyl)-7-methoxy-1H-benzo[d]imidazol-5-yl)methanone]
50 | COc1cc(C(=O)N2C[C@H]3CC[C@@H]2[C@@H]3N)cc2nc(-c3cc4ccccc4n3CC3CC3)n(CC3CN(C(=O)c4nn[nH]n4)C3)c12 [Example 173, (1R,4R,7R)-2-{2-[1-(cyclopropylmethyl)-1H-indol-2-yl]-7-methoxy-1-{[1-(2H-1,2,3,4-tetrazole-5-carbonyl)azetidin-3-yl]methyl}-1H-1,3-benzodiazole-5-carbonyl}-2-azabicyclo[2.2.1]heptan-7-amine]
261 | COc1cc(C(=O)N2C[C@H](N)C[C@@H](F)C2)cc2nc(-c3cc4ccccc4n3CC3CC3)n(CCCN3CCCC3=O)c12 [Example 274, 1-(3-{5-[(3R,5R)-3-amino-5-fluoropiperidine-1-carbonyl]-2-[1-(cyclopropylmethyl)-1H-indol-2-yl]-7-methoxy-1H-1,3-benzodiazol-1-yl}propyl)pyrrolidin-2-one]
